The record followed here is ChEMBL document CHEMBL1201862, “PubChem BioAssay data set” (2004).

Some test systems named below: DLD-1; DMS-114; HOP-18; KM-20L2; LXFL 529; M19-MEL; SNB-78; XF498; RXF 631.
Common to all, as to assay: DTP human tumour cell line panel, 48 h

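Cultured in 96-well plates, cells were exposed to test compound for 48 hours across five concentrations. At the GI50, growth is halved.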 Calls of active or inactive are those of the source. No stated cut-off is given here; in the data, active = GI50 up to about 1.1 µM and inactive = higher.

Take `Cc1ccc(C)c(C(=O)CC2OC(O)C(Cl)C2Cl)c1` (stereo not given): the GI50 was 17.1 µM (inactive) in the experiment with DLD-1; > 100 µM (inactive) in the experiment with DMS-114; > 100 µM (inactive) with HOP-18; > 100 µM (inactive) in the experiment on KM-20L2; 17.4 µM (inactive) in the experiment on LXFL 529; 72.3 µM (inactive) in the experiment with M19-MEL. For the same molecule, the GI50 was 60.1 µM (inactive) in the experiment on SNB-78 and > 100 µM (inactive) in the experiment with XF498.
On to `CSc1nc(CO)c(CO)n1C`, for which the GI50 in the experiment with DLD-1, with DMS-114, in the experiment on HOP-18, with KM-20L2, in the experiment with M19-MEL and in the experiment on SNB-78 was > 100 µM (inactive) throughout. Also, the GI50 in the experiment on XF498 was > 100 µM (inactive).
`CC(=O)Nc1ccc(-c2nnc(SCC(=O)Nc3ccccc3Cl)o2)cc1`: the GI50 with DLD-1 is > 100 µM (inactive); in the experiment with DMS-114, > 100 µM (inactive); in the experiment on HOP-18 it was 87.7 µM (inactive); with KM-20L2, > 100 µM (inactive); in the experiment with LXFL 529 it was > 100 µM (inactive); in the experiment with M19-MEL, > 100 µM (inactive). Further, in the experiment with SNB-78, the GI50 is > 100 µM (inactive).
`NC1=NN(c2ccccc2)C(=O)C1/C(=N\NC(=O)c1cc2ccccc2cc1O)C(=O)Nc1ccc(Cl)c(Cl)c1` (stereo not given): the GI50 in the experiment with DLD-1 is 30.5 µM (inactive); in the experiment with DMS-114, 25.2 µM (inactive); in the experiment with HOP-18, 31.6 µM (inactive); with KM-20L2 it was 32.5 µM (inactive); in the experiment with LXFL 529, 34.4 µM (inactive); in the experiment with SNB-78 it was 23.8 µM (inactive). Further, in the experiment with XF498, the GI50 is 25.1 µM (inactive).
As to `CC(C)(C)c1cc(CCC(=O)Nc2ccc(Cl)cc2)nc(NC#N)n1`, the GI50 in the experiment on DLD-1, in the experiment on HOP-18, in the experiment on KM-20L2, with LXFL 529, with M19-MEL and in the experiment with SNB-78 was > 100 µM (inactive) each time.
Take `C[N+](C)(C)CC(=O)N/N=C/c1oc(-c2cccc([N+](=O)[O-])c2)c(-c2cccc([N+](=O)[O-])c2)c1[N+](=O)[O-]`: the GI50 with DLD-1 is 64.4 µM (inactive); with DMS-114 it was 47.3 µM (inactive); in the experiment on KM-20L2, > 100 µM (inactive); in the experiment on M19-MEL, 38.5 µM (inactive); with RXF 631 it was 49.7 µM (inactive).
As to `CO[C@@H]1[C@H](OC(=O)NC(=O)CCl)CC[C@]2(CO2)[C@H]1[C@@]1(C)O[C@@H]1CC=C(C)C` [O-CHLOROACETYLCARBAMOYLFUMAGILLOL], the GI50 in the experiment on DLD-1 was 8.83 µM (inactive); in the experiment with DMS-114 it was 7.03 µM (inactive); in the experiment on HOP-18, > 10 µM (inactive); in the experiment on KM-20L2, 16.6 µM (inactive); with LXFL 529, 1.78 µM (inactive); in the experiment on M19-MEL, 6.49 µM (inactive). Besides, the GI50 with RXF 631 was 1.67 µM (inactive); in the experiment on SNB-78, > 10 µM (inactive); with XF498 it was 6.35 µM (inactive).
Turning to `O=c1[c-](-c2ccccc2)[se]c(-c2ccccc2)[n+]1-c1ccccc1`, the GI50 in the experiment with DLD-1 was 2 µM (inactive); in the experiment on DMS-114 it was 4.69 µM (inactive); in the experiment with HOP-18 it was 11.5 µM (inactive); in the experiment with LXFL 529 it was 13.5 µM (inactive); with M19-MEL it was 7.59 µM (inactive); with RXF 631 it was 13.6 µM (inactive). Besides, the GI50 in the experiment with SNB-78 is 3.81 µM (inactive).
In the case of `Cc1cc2c(cc1C)[n+]([O-])c(C(=O)C/C(=N/NC(=O)CC#N)C(=O)Nc1ccccc1C(F)(F)F)c(C)[n+]2[O-]`, the GI50 was 28.6 µM (inactive) in the experiment on DMS-114; > 100 µM (inactive) with HOP-18; 37.5 µM (inactive) in the experiment with KM-20L2; 45.6 µM (inactive) in the experiment with LXFL 529; 43.2 µM (inactive) with M19-MEL; 16.9 µM (inactive) with RXF 631. The GI50 in the experiment on SNB-78 is 2.59 µM (inactive); in the experiment on XF498 it was 82.2 µM (inactive).
As for `CC(=O)Nc1ccc(Cl)c(Cl)c1`, the GI50 with DLD-1, with DMS-114, in the experiment on KM-20L2, in the experiment on LXFL 529, in the experiment with M19-MEL and in the experiment with SNB-78 was > 100 µM (inactive) in each case.
Turning to `Cc1cccc2nc3cccc(C(=O)NCCN(C)C)c3nc12`, the GI50 is 0.444 µM (active) with DLD-1; 1.06 µM (active) with DMS-114; 2.4 µM (inactive) with HOP-18; 0.675 µM (active) with M19-MEL; 0.802 µM (active) in the experiment on SNB-78.
Turning to `O=C1C=C(Nc2ccc(Br)cc2)c2ccccc2C1=O`, the GI50 with DMS-114 is 4.65 µM (inactive); in the experiment with KM-20L2, 23 µM (inactive); in the experiment with LXFL 529, 12.5 µM (inactive); in the experiment with M19-MEL, 1.73 µM (inactive).
Turning to `CC(=O)Oc1cc2c(cc1OC(C)=O)OCC(c1ccccc1)C2` (stereo not given), the GI50 in the experiment on DLD-1 was 9.31 µM (inactive); in the experiment with DMS-114, 6.81 µM (inactive); in the experiment on HOP-18, 29.9 µM (inactive); with KM-20L2, 34.7 µM (inactive); in the experiment on M19-MEL, 14.9 µM (inactive); in the experiment on SNB-78, 39.2 µM (inactive). Also, in the experiment with XF498, the GI50 was 12.4 µM (inactive).
On to `CSc1s[s+]c(SC)c1[O-]`, for which the GI50 is 16.5 µM (inactive) in the experiment on DLD-1; 17.5 µM (inactive) with DMS-114; > 100 µM (inactive) with HOP-18; 80.7 µM (inactive) in the experiment with KM-20L2; 18.7 µM (inactive) in the experiment with LXFL 529; 15.5 µM (inactive) with M19-MEL. The GI50 with RXF 631 was 19.2 µM (inactive); with SNB-78, 55.1 µM (inactive); in the experiment with XF498 it was 45.8 µM (inactive).
Consider `COC(=O)C1=C(c2ccc3c(c2)OCO3)O[C@H](c2ccc3c(c2)OCO3)[C@H]1COC(C)=O`, for which the GI50 is 35.7 µM (inactive) in the experiment on DLD-1; 57.9 µM (inactive) with DMS-114; 36.6 µM (inactive) in the experiment on HOP-18; 71.1 µM (inactive) with KM-20L2; 32.3 µM (inactive) in the experiment with LXFL 529; 33.3 µM (inactive) in the experiment with M19-MEL. For the same molecule, the GI50 was 66.1 µM (inactive) in the experiment with SNB-78 and 41.8 µM (inactive) in the experiment with XF498.
On to `Cc1ccc(C(=O)OC(C)C)cc1/N=N/N(C)C`, for which the GI50 in the experiment on DLD-1 was > 100 µM (inactive); in the experiment on KM-20L2, 55.5 µM (inactive); in the experiment with LXFL 529 it was 66.5 µM (inactive); with M19-MEL, 97.7 µM (inactive); in the experiment on SNB-78, 55.3 µM (inactive).
Regarding `CC(=O)c1c(P(=O)(OC(C)C)OC(C)C)nn(-c2ccc([N+](=O)[O-])cc2)c1C`, the GI50 in the experiment on DLD-1, in the experiment on DMS-114, in the experiment on KM-20L2, with LXFL 529, in the experiment with M19-MEL and in the experiment with SNB-78 was > 100 µM (inactive) in each case. Moreover, the GI50 in the experiment with XF498 was > 100 µM (inactive).
Regarding `O=C(O)/C(=C/c1ccccc1[N+](=O)[O-])c1ccccc1`, the GI50 with DLD-1, in the experiment on DMS-114, with KM-20L2, in the experiment on LXFL 529, with M19-MEL and in the experiment with RXF 631 was > 100 µM (inactive) throughout. The GI50 in the experiment with SNB-78 and in the experiment on XF498 was > 100 µM (inactive) in each case.
For the molecule `C[S+](C)C1(c2ccccc2)C(=O)c2ccccc2C1=O`, the GI50 in the experiment on DLD-1, in the experiment with DMS-114, with HOP-18, in the experiment with KM-20L2, in the experiment with LXFL 529 and in the experiment on M19-MEL was > 100 µM (inactive) throughout. Besides, the GI50 in the experiment on SNB-78 is > 100 µM (inactive); in the experiment with XF498, 32.4 µM (inactive).
Consider `c1ccc2c(c1)OCCc1cn[nH]c1-2`, for which the GI50 in the experiment with DLD-1 was > 100 µM (inactive); in the experiment with DMS-114, 99.1 µM (inactive); with HOP-18, > 43.5 µM (inactive); with KM-20L2, > 100 µM (inactive); with SNB-78 it was > 100 µM (inactive); with XF498, 52.2 µM (inactive).
With `C[N+](C)(C)CC1CCCC(C[N+](C)(C)C)C1=O` (stereo not given), the GI50 is 0.105 µM (active) in the experiment on DLD-1; 1.77 µM (inactive) in the experiment with DMS-114; 0.494 µM (active) in the experiment on HOP-18; 0.855 µM (active) in the experiment with KM-20L2; 0.177 µM (active) with LXFL 529; 0.879 µM (active) in the experiment on M19-MEL. Moreover, the results for the GI50 in the experiment with RXF 631, with SNB-78 and with XF498 were 1.96 µM (inactive), 2.39 µM (inactive) and 0.411 µM (active), respectively.
Regarding `CC(C)N(C(=O)C12C3C4C1C1C2C3C41C(=O)O)C(C)C` (stereo not given), the GI50 with DLD-1, with DMS-114, in the experiment on KM-20L2 and in the experiment with LXFL 529 was > 100 µM (inactive) throughout.
For the molecule `COC(=O)Cc1cc(OC)c(OC)cc1Br`, the GI50 with DLD-1, in the experiment with DMS-114, in the experiment with KM-20L2, with LXFL 529, in the experiment on M19-MEL and in the experiment with SNB-78 was > 100 µM (inactive) throughout.
Take `NC1=NS(=O)(=O)Nc2[nH]c(-c3ccccc3)nc21`: the GI50 in the experiment with DLD-1, in the experiment on DMS-114, in the experiment on HOP-18, in the experiment with KM-20L2, in the experiment with LXFL 529 and in the experiment with M19-MEL was > 100 µM (inactive) in each case. Also, the GI50 in the experiment on SNB-78 and in the experiment with XF498 was > 100 µM (inactive) each time.
Take `CCOC(=O)Nc1cc2nnc(-c3ccccc3)nc2c(N)n1`: the GI50 in the experiment on DLD-1 is 18.6 µM (inactive); in the experiment on DMS-114 it was 27.6 µM (inactive); with KM-20L2, 4.25 µM (inactive); with LXFL 529, 32.1 µM (inactive); in the experiment with M19-MEL it was 4.35 µM (inactive); in the experiment on XF498, 31.4 µM (inactive).

The GI50 is the concentration that inhibits growth by half.
